Reference: patent publication US8349365B2, “Cellooligosaccharide-containing composition” (priority 2005, dated 2013)

Columns and labels:
[1] = test system: rough skin, inner side of the forearm; experiment: transepidermal water loss (TEWL) recovery test; format: in vivo, human
Source text: The barrier function in the present invention is expressed by the recovery-promoting rate of transepidermal water loss, and the recovery-promoting rate of transepidermal water loss of the agent for improving barrier function of the present invention is preferably 10% or higher. The recovery-promoting rate referred to herein is expressed by a decreasing rate of relative transepidermal water loss of the cellooligosaccharide-containing composition to a relative transepidermal water loss of purified water using a relative transepidermal water loss 2 hours after applications of the aqueous cellooligosaccharide solution and a relative transepidermal water loss obtained from purified water to the rough skin. This value is obtained by the following expression. Recovery-promoting rate(%)=([relative transepidermal water loss of water)−[relative transepidermal water loss of cellooligosaccharide-containing composition]/(relative transepidermal water loss of water)×100
Furthermore, a relative value of the above-mentioned transepidermal water loss (relative transepidermal water loss) can be measured by transepidermal water loss (TEWL) in the rough skin. First, the inner side of the forearm (test site) is wiped with 70% ethanol and habituated in a room with a constant temperature and a humidity (room temperature 22° C., humidity 45%) for 15 minutes, and the test site is measured with a 2-channel moisture loss monitor (manufactured by Asahi Biomed, TW-AS type to obtain the initial TEWL value (TEWEL0). Then, after measurement of the initial TEWL, the test site is washed with water, the test site is coated with 2% by mass of sodium dodecylsulfate (SDS, by a closed patch and washed with water using a Finn chamber (manufactured by Epitest), and then TEWL (TSWL rough skin) is measured in the same manner as described above. Then purified water or the aqueous cellooligosaccharide solution of the present invention is applied to the same site, and TEWL at the site is measured 2 hours after application (TEWL2) by the above-described method. […]

[2] = oil retention (rapeseed oil); format: physicochemical; details: same manner as in Example 4
Source text: The oil retention of the cellooligosaccharide composition of the present invention is preferably 0.9 g/g. The term “oil retention” means the amount of oil absorbed per 1 g of powder measured by placing 2 g of a cellooligosaccharide composition on a glass plate, kneading powder with a spatula while adding rapeseed oil (Nissin Canola Oil, dropwise using a pipette, and using the point at which oil soaks out of the powder surface as the end point and is expressed by Oil retention (g/g)=amount of oil absorption (g)/amount of cellooligosaccharide composition (g). A greater value is preferable because separation or soaking out of oil, semisolid or liquid can be prevented when a food, a cosmetic, a drug, or a quasi-drug is produced with a prescription containing oil or a prescription containing a semisolid or a liquid at room temperature. The oil retention is more preferably in the range of 1.0 g/g and higher, particularly preferably in the range of 1.1 g/g and higher.

OC[C@H]1O[C@H](OC[C@H]2O[C@H](O[C@]3(CO)O[C@H](CO)[C@@H](O)[C@@H]3O)[C@H](O)[C@@H](O)[C@@H]2O)[C@H](O)[C@@H](O)[C@H]1O [compound 9, raffinose]
relative TEWL value after 2 hours ([1]; SDS-treated forearm skin of 3 male and 2 female subjects, rough skin taken as 100, 2 hours after application): 42.1% | TEWL RECOVERY-PROMOTING RATE AFTER 2 HOURS ([1]; relative to purified water, 2 hours after application): −7.1%

OC[C@H]1O[C@H](OC[C@H]2O[C@H](O[C@]3(CO)O[C@H](CO)[C@@H](O)[C@@H]3O)[C@H](O)[C@@H](O)[C@@H]2O)[C@H](O)[C@@H](O)[C@H]1O [compound 13, raffinose]
relative TEWL value ([1]; measured in the same manner as in Examples 19 to 23, 5% by mass): 42.1%

OC[C@H]1O[C@@H](O[C@H]2[C@H](O)[C@@H](O)[C@H](O)O[C@@H]2CO)[C@H](O)[C@@H](O)[C@@H]1O [D-cellobiose]
oil retention [2]: 0.85
